Results reported in ChEMBL document CHEMBL1128885, “Resolution and comparative anti-HIV evaluation of the enantiomers of calanolides A and B” (Bioorg Med Chem Lett, 1995).

Assays:
[1] = test system: Human immunodeficiency virus 1; experiment: Effective concentration required for in vitro inhibitory activity against HIV-1; type: functional, organism-based
[2] = test system: Human immunodeficiency virus 1; experiment: Effective concentration required for in vitro inhibitory activity against HIV-1; IA is Inactive; type: functional, organism-based

SMILES	EC50 [1]	EC50 [2]
CCCc1cc(=O)oc2c3c(c4c(c12)OC(C)(C)C=C4)O[C@H](C)[C@@H](C)[C@@H]3O [CALANOLIDE A]	200 nM	–
CCCc1cc(=O)oc2c3c(c4c(c12)OC(C)(C)C=C4)O[C@@H](C)[C@H](C)[C@@H]3O [COSTATOLIDE]	300 nM	–
CCCc1cc(=O)oc2c3c(c4c(c12)OC(C)(C)C=C4)O[C@H](C)[C@@H](C)[C@H]3O [(+)-CALANOLIDE B]	–	Not Active
CCCc1cc(=O)oc2c3c(c4c(c12)OC(C)(C)C=C4)O[C@@H](C)[C@H](C)[C@H]3O [(-)-CALANOLIDE A]	–	Not Active
